Test results from paper PMC8924211 (Nature Communications, 2022).
Substitutions are numbered along the chain they refer to.

What was measured:
[1] = biological target: GAL1R (Homo sapiens, UniProt P47211); assay: Calcium assay, HEK293/Gα16 cells, WT GAL1R; format: cell-based; conditions: HEK293/Gα16, calcium response (Supplementary Fig. 9a)
[2] = biological target: T1, GAL2R mutants (Homo sapiens, UniProt O43603, A170S); assay: Calcium assay, HEK293/Gα16 cells, GAL2R mutants; format: cell-based; conditions: GAL2R A170ECL2S
T1 construct: expressed in transfected cells; host or cells: HEK293
T1 sequence (O43603 1-387 A170S): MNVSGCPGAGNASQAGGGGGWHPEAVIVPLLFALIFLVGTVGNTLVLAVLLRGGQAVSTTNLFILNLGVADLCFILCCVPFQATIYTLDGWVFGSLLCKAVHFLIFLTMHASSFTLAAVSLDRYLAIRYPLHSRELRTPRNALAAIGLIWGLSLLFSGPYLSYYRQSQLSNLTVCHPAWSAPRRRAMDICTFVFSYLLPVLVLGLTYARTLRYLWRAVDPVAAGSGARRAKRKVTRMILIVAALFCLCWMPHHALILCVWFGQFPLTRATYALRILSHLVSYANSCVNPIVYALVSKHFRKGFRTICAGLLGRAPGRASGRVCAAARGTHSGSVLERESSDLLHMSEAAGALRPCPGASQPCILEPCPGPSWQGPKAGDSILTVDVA

[3] = biological target: T2, GAL2R mutants (Homo sapiens, UniProt O43603, I85A); assay: Calcium assay, HEK293/Gα16 cells, GAL2R mutants; format: cell-based; conditions: GAL2R I852.64A
T2 construct: expressed in transfected cells; host or cells: HEK293
T2 sequence (O43603 1-387 I85A): T1 sequence (O43603 1-387 A170S) with I85A, S170A

[4] = biological target: T3, GAL2R mutants (Homo sapiens, UniProt O43603, L169A); assay: Calcium assay, HEK293/Gα16 cells, GAL2R mutants; format: cell-based; conditions: GAL2R L169ECL2A
T3 construct: expressed in transfected cells; host or cells: HEK293
T3 sequence (O43603 1-387 L169A): T1 sequence (O43603 1-387 A170S) with L169A, S170A

[5] = biological target: T4, GAL2R mutants (Homo sapiens, UniProt O43603, Y164A); assay: Calcium assay, HEK293/Gα16 cells, GAL2R mutants; format: cell-based; conditions: GAL2R Y1644.64A
T4 construct: expressed in transfected cells; host or cells: HEK293
T4 sequence (O43603 1-387 Y164A): T1 sequence (O43603 1-387 A170S) with Y164A, S170A

[6] = biological target: T5, GAL2R mutants (Homo sapiens, UniProt O43603, Y271A); assay: Calcium assay, HEK293/Gα16 cells, GAL2R mutants; format: cell-based; conditions: GAL2R Y2717.32A
T5 construct: expressed in transfected cells; host or cells: HEK293
T5 sequence (O43603 1-387 Y271A): T1 sequence (O43603 1-387 A170S) with S170A, Y271A

[7] = system: GAL2R over GAL1R; conditions: cross-reactivity to galanin receptors; cited from earlier work
Description: In contrast, L^4P contacts with equivalent ECL2 residues with weaker hydrophobicity (L169^ECL2, A170^ECL2, and L172^ECL2) in GAL2R (Fig. 3e, Supplementary Fig. 4b). The structural observation is coincident with our peptide truncation assay.

[8] = response of 100 μM spexin compared to WT, mean ± S.E.M.
[9] = response of 100 μM spexin compared to WT

Chain of GAL1R (P47211 whole entry): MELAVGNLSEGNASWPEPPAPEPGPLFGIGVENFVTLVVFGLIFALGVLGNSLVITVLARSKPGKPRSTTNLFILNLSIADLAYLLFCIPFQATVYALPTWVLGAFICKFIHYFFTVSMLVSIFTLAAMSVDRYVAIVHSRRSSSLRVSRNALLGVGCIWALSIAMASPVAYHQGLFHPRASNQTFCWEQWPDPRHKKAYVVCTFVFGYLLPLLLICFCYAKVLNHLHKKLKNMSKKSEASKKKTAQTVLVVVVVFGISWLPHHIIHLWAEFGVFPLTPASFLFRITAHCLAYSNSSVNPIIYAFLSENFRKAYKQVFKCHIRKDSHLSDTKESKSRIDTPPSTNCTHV

spexin
activation of GAL1R [1]: did not activate
Emax [2, 8]: 17.66±5.3%
EC50 ([2]; spexin, replicate 1): 95.4 nM
Emax ([2]; spexin, replicate 1): 11.3367%
EC50 ([2]; spexin, replicate 2): 151.4 nM
Emax ([2]; spexin, replicate 2): 13.424%
EC50 ([2]; spexin, replicate 3): 150.6 nM
Emax ([2]; spexin, replicate 3): 28.2269%
Emax [3, 9]: NR (NR, no response, refers to response < 10% compared to WT receptor (spexin at 100 μM))
Emax ([3]; spexin, replicate 1): no response
Emax ([3]; spexin, replicate 2): no response
Emax ([3]; spexin, replicate 3): no response
Emax [4, 8]: 94.58±11.1%
EC50 ([4]; spexin, replicate 1): 7173 nM
Emax ([4]; spexin, replicate 1): 77.1819%
EC50 ([4]; spexin, replicate 2): 5137 nM
Emax ([4]; spexin, replicate 2): 91.205%
Emax ([4]; spexin, replicate 3): 115.35%
Emax [5, 9]: NR (NR, no response, refers to response < 10% compared to WT receptor (spexin at 100 μM))
Emax ([5]; spexin, replicate 1): no response
Emax ([5]; spexin, replicate 2): no response
Emax ([5]; spexin, replicate 3): no response
Emax [6, 8]: 22.23±2.2%
EC50 ([6]; spexin, replicate 1): 5958 nM
Emax ([6]; spexin, replicate 1): 23.9745%
EC50 ([6]; spexin, replicate 2): 1581 nM
Emax ([6]; spexin, replicate 2): 17.9395%
EC50 ([6]; spexin, replicate 3): 751.8 nM
Emax ([6]; spexin, replicate 3): 24.7776%
affinity for GALR2 versus GALR1 [7]: high affinity for GALR2 but not GALR1
